Laboratory results as given in ChEMBL document CHEMBL1649134, “Occurrence of efflux mechanism and cephalosporinase variant in a population of Enterobacter aerogenes and Klebsiella pneumoniae isolates producing extended-spectrum beta-lactamases” (2009).
≈ marks a conversion by molar mass, not a printed value.

Legend:
Klebsiella pneumoniae [1] = assay: Antimicrobial activity against multidrug resistant Klebsiella pneumoniae isolate 16 by broth dilution method; format: functional
Escherichia coli [2] = assay: microbe, parasite or virus in culture; details: DH5[alpha]
Description: Antimicrobial activity against multidrug resistant Escherichia coli DH5[alpha] harboring pACM204 plasmid by broth dilution method

Klebsiella pneumoniae [3] = assay: Antimicrobial activity against multidrug resistant Klebsiella pneumoniae isolate 12 by broth dilution method; format: functional
Klebsiella aerogenes [4] = assay: Antimicrobial activity against multidrug resistant Enterobacter aerogenes isolate 23 by broth dilution method; format: functional
Klebsiella pneumoniae [5] = assay: Antimicrobial activity against multidrug resistant Klebsiella pneumoniae isolate 5 by broth dilution method; format: functional
Klebsiella aerogenes [6] = assay: Antimicrobial activity against multidrug resistant Enterobacter aerogenes isolate 22 by broth dilution method; format: functional
Klebsiella aerogenes [7] = assay: Antimicrobial activity against multidrug resistant Enterobacter aerogenes isolate 11 by broth dilution method; format: functional
Klebsiella aerogenes [8] = assay: Antimicrobial activity against multidrug resistant Enterobacter aerogenes isolate 27 by broth dilution method; format: functional
Klebsiella aerogenes [9] = assay: Antimicrobial activity against multidrug resistant Enterobacter aerogenes isolate 20 by broth dilution method; format: functional
Klebsiella aerogenes [10] = assay: Antimicrobial activity against multidrug resistant Enterobacter aerogenes isolate 10 by broth dilution method; format: functional
Klebsiella pneumoniae [11] = assay: Antimicrobial activity against multidrug resistant Klebsiella pneumoniae isolate 15 by broth dilution method; format: functional
Klebsiella aerogenes [12] = assay: Antimicrobial activity against multidrug resistant Enterobacter aerogenes isolate 17 by broth dilution method; format: functional
Klebsiella aerogenes [13] = assay: Antimicrobial activity against multidrug resistant Enterobacter aerogenes isolate 1 by broth dilution method; format: functional
Escherichia coli [14] = assay: microbe, parasite or virus in culture; details: DH5[alpha]; remark: listed apart in the source
Description: Antimicrobial activity against multidrug resistant Escherichia coli DH5[alpha] harboring pDrive plasmid expressing ampC gene by broth dilution method

Klebsiella aerogenes [15] = assay: Antimicrobial activity against multidrug resistant Enterobacter aerogenes ATCC 15038 harboring pACM204 plasmid by broth dilution method; format: functional
Klebsiella aerogenes [16] = assay: Antimicrobial activity against multidrug resistant Enterobacter aerogenes isolate 24 by broth dilution method; format: functional
Klebsiella aerogenes [17] = assay: Antimicrobial activity against multidrug resistant Enterobacter aerogenes isolate 12 by broth dilution method; format: functional
Klebsiella aerogenes [18] = assay: Antimicrobial activity against multidrug resistant Enterobacter aerogenes isolate 13 by broth dilution method; format: functional
Klebsiella pneumoniae [19] = assay: Antimicrobial activity against multidrug resistant Klebsiella pneumoniae isolate 10 by broth dilution method; format: functional
Escherichia coli [20] = assay: microbe, parasite or virus in culture; details: DH5[alpha]; remark: listed apart in the source
Description: Antimicrobial activity against multidrug resistant Escherichia coli DH5[alpha] by broth dilution method

Klebsiella aerogenes [21] = assay: Antimicrobial activity against multidrug resistant Enterobacter aerogenes isolate 7 by broth dilution method; format: functional
Klebsiella aerogenes [22] = assay: Antimicrobial activity against multidrug resistant Enterobacter aerogenes isolate 8 by broth dilution method; format: functional
Klebsiella aerogenes [23] = assay: Antimicrobial activity against multidrug resistant Enterobacter aerogenes isolate 25 by broth dilution method; format: functional
Escherichia coli [24] = assay: microbe, parasite or virus in culture; details: DH5[alpha]; remark: listed apart in the source
Description: Antimicrobial activity against multidrug resistant Escherichia coli DH5[alpha] harboring pDrive plasmid by broth dilution method

Klebsiella pneumoniae [25] = assay: Antimicrobial activity against multidrug resistant Klebsiella pneumoniae ATCC 11296 by broth dilution method; format: functional
Klebsiella pneumoniae [26] = assay: Antimicrobial activity against multidrug resistant Klebsiella pneumoniae isolate 2 by broth dilution method; format: functional
Klebsiella aerogenes [27] = assay: Antimicrobial activity against multidrug resistant Enterobacter aerogenes isolate 16 by broth dilution method; format: functional
Klebsiella aerogenes [28] = assay: Antimicrobial activity against multidrug resistant Enterobacter aerogenes isolate 21 by broth dilution method; format: functional
Escherichia coli [29] = assay: Antimicrobial activity against multidrug resistant Escherichia coli ATCC 35218 by broth dilution method; format: functional
Klebsiella pneumoniae [30] = assay: Antimicrobial activity against multidrug resistant Klebsiella pneumoniae isolate 4 by broth dilution method; format: functional
Escherichia coli [31] = assay: microbe, parasite or virus in culture; details: ATCC 35218
Description: Antimicrobial activity against multidrug resistant Escherichia coli ATCC 35218 harboring pDrive plasmid by broth dilution method

Klebsiella aerogenes [32] = assay: Antimicrobial activity against multidrug resistant Enterobacter aerogenes isolate 3 by broth dilution method; format: functional
Escherichia coli [33] = assay: microbe, parasite or virus in culture; details: ATCC 35218; remark: listed apart in the source
Description: Antimicrobial activity against multidrug resistant Escherichia coli ATCC 35218 harboring pDrive plasmid expressing ampC gene by broth dilution method

Klebsiella aerogenes [34] = assay: Antimicrobial activity against multidrug resistant Enterobacter aerogenes isolate 2 by broth dilution method; format: functional
Klebsiella pneumoniae [35] = assay: Antimicrobial activity against multidrug resistant Klebsiella pneumoniae isolate 3 by broth dilution method; format: functional
Klebsiella aerogenes [36] = assay: Antimicrobial activity against multidrug resistant Enterobacter aerogenes isolate 4 by broth dilution method; format: functional
Klebsiella pneumoniae [37] = assay: Antimicrobial activity against multidrug resistant Klebsiella pneumoniae isolate 8 by broth dilution method; format: functional
Klebsiella aerogenes [38] = assay: Antimicrobial activity against multidrug resistant Enterobacter aerogenes isolate 18 by broth dilution method; format: functional
Klebsiella aerogenes [39] = assay: Antimicrobial activity against multidrug resistant Enterobacter aerogenes isolate 6 by broth dilution method; format: functional
Klebsiella aerogenes [40] = assay: Antimicrobial activity against multidrug resistant Enterobacter aerogenes isolate 5 by broth dilution method; format: functional
Klebsiella pneumoniae [41] = assay: Antimicrobial activity against multidrug resistant Klebsiella pneumoniae isolate 7 by broth dilution method; format: functional
Klebsiella pneumoniae [42] = assay: Antimicrobial activity against multidrug resistant Klebsiella pneumoniae isolate 1 by broth dilution method; format: functional
Klebsiella aerogenes [43] = assay: Antimicrobial activity against multidrug resistant Enterobacter aerogenes isolate 15 by broth dilution method; format: functional
Klebsiella pneumoniae [44] = assay: Antimicrobial activity against multidrug resistant Klebsiella pneumoniae isolate 13 by broth dilution method; format: functional
Klebsiella pneumoniae [45] = assay: Antimicrobial activity against multidrug resistant Klebsiella pneumoniae isolate 6 by broth dilution method; format: functional
Klebsiella aerogenes [46] = assay: Antimicrobial activity against multidrug resistant Enterobacter aerogenes isolate 9 by broth dilution method; format: functional
Klebsiella pneumoniae [47] = assay: Antimicrobial activity against multidrug resistant Klebsiella pneumoniae isolate 11 by broth dilution method; format: functional
Klebsiella aerogenes [48] = assay: Antimicrobial activity against multidrug resistant Enterobacter aerogenes isolate 26 by broth dilution method; format: functional
Klebsiella aerogenes [49] = assay: Antimicrobial activity against multidrug resistant Enterobacter aerogenes ATCC 15038 harboring pDrive plasmid expressing ampC gene by broth dilution method; format: functional
Klebsiella aerogenes [50] = assay: Antimicrobial activity against multidrug resistant Enterobacter aerogenes ATCC 15038 harboring pDrive plasmid by broth dilution method; format: functional
Klebsiella aerogenes [51] = assay: Antimicrobial activity against multidrug resistant Enterobacter aerogenes ATCC 15038 by broth dilution method; format: functional
Klebsiella pneumoniae [52] = assay: Antimicrobial activity against multidrug resistant Klebsiella pneumoniae isolate 9 by broth dilution method; format: functional
Klebsiella aerogenes [53] = assay: Antimicrobial activity against multidrug resistant Enterobacter aerogenes isolate 19 by broth dilution method; format: functional
Klebsiella aerogenes [54] = assay: Antimicrobial activity against multidrug resistant Enterobacter aerogenes isolate 14 by broth dilution method; format: functional

CO/N=C(\C(=O)N[C@@H]1C(=O)N2C(C(=O)[O-])=C(C[N+]3(C)CCCC3)CS[C@H]12)c1csc(N)n1
MIC (Klebsiella pneumoniae [1]): 64 µg/mL (≈ 133 µM)
MIC (Escherichia coli [2]): 0.25 µg/mL (≈ 0.52 µM)
MIC (Klebsiella pneumoniae [3]): 16 µg/mL (≈ 33.3 µM)
MIC (Klebsiella aerogenes [4]): 64 µg/mL (≈ 133 µM)
MIC (Klebsiella pneumoniae [5]): 64 µg/mL (≈ 133 µM)
MIC (Klebsiella aerogenes [6]): 64 µg/mL (≈ 133 µM)
MIC (Klebsiella aerogenes [7]): 64 µg/mL (≈ 133 µM)
MIC (Klebsiella aerogenes [8]): 128 µg/mL (≈ 266 µM)
MIC (Klebsiella aerogenes [9]): 64 µg/mL (≈ 133 µM)
MIC (Klebsiella aerogenes [10]): 16 µg/mL (≈ 33.3 µM)
MIC (Klebsiella pneumoniae [11]): 32 µg/mL (≈ 66.6 µM)
MIC (Klebsiella aerogenes [12]): 64 µg/mL (≈ 133 µM)
MIC (Klebsiella aerogenes [13]): 32 µg/mL (≈ 66.6 µM)
MIC (Escherichia coli [14]): 32 µg/mL (≈ 66.6 µM)
MIC (Klebsiella aerogenes [15]): 0.25 µg/mL (≈ 0.52 µM)
MIC (Klebsiella aerogenes [16]): 128 µg/mL (≈ 266 µM)
MIC (Klebsiella aerogenes [17]): 128 µg/mL (≈ 266 µM)
MIC (Klebsiella aerogenes [18]): 64 µg/mL (≈ 133 µM)
MIC (Klebsiella pneumoniae [19]): 64 µg/mL (≈ 133 µM)
MIC (Escherichia coli [20]): 0.125 µg/mL (≈ 0.26 µM)
MIC (Klebsiella aerogenes [21]): 64 µg/mL (≈ 133 µM)
MIC (Klebsiella aerogenes [22]): 64 µg/mL (≈ 133 µM)
MIC (Klebsiella aerogenes [23]): 64 µg/mL (≈ 133 µM)
MIC (Escherichia coli [24]): 0.5 µg/mL (≈ 1.04 µM)
MIC (Klebsiella pneumoniae [25]): 0.125 µg/mL (≈ 0.26 µM)
MIC (Klebsiella pneumoniae [26]): 64 µg/mL (≈ 133 µM)
MIC (Klebsiella aerogenes [27]): 64 µg/mL (≈ 133 µM)
MIC (Klebsiella aerogenes [28]): 128 µg/mL (≈ 266 µM)
MIC (Escherichia coli [29]): 0.03 µg/mL (≈ 0.0624 µM)
MIC (Klebsiella pneumoniae [30]): 64 µg/mL (≈ 133 µM)
MIC (Escherichia coli [31]): 0.5 µg/mL (≈ 1.04 µM)
MIC (Klebsiella aerogenes [32]): 16 µg/mL (≈ 33.3 µM)
MIC (Escherichia coli [33]): 32 µg/mL (≈ 66.6 µM)
MIC (Klebsiella aerogenes [34]): 32 µg/mL (≈ 66.6 µM)
MIC (Klebsiella pneumoniae [35]): 64 µg/mL (≈ 133 µM)
MIC (Klebsiella aerogenes [36]): 32 µg/mL (≈ 66.6 µM)
MIC (Klebsiella pneumoniae [37]): 64 µg/mL (≈ 133 µM)
MIC (Klebsiella aerogenes [38]): 32 µg/mL (≈ 66.6 µM)
MIC (Klebsiella aerogenes [39]): 4 µg/mL (≈ 8.32 µM)
MIC (Klebsiella aerogenes [40]): 64 µg/mL (≈ 133 µM)
MIC (Klebsiella pneumoniae [41]): 64 µg/mL (≈ 133 µM)
MIC (Klebsiella pneumoniae [42]): 64 µg/mL (≈ 133 µM)
MIC (Klebsiella aerogenes [43]): 16 µg/mL (≈ 33.3 µM)
MIC (Klebsiella pneumoniae [44]): 2 µg/mL (≈ 4.16 µM)
MIC (Klebsiella pneumoniae [45]): 16 µg/mL (≈ 33.3 µM)
MIC (Klebsiella aerogenes [46]): 32 µg/mL (≈ 66.6 µM)
MIC (Klebsiella pneumoniae [47]): 64 µg/mL (≈ 133 µM)
MIC (Klebsiella aerogenes [48]): 2 µg/mL (≈ 4.16 µM)
MIC (Klebsiella aerogenes [49]): 32 µg/mL (≈ 66.6 µM)
MIC (Klebsiella aerogenes [50]): 0.25 µg/mL (≈ 0.52 µM)
MIC (Klebsiella aerogenes [51]): 0.03 µg/mL (≈ 0.0624 µM)
MIC (Klebsiella pneumoniae [52]): 64 µg/mL (≈ 133 µM)
MIC (Klebsiella aerogenes [53]): 64 µg/mL (≈ 133 µM)
MIC (Klebsiella aerogenes [54]): 64 µg/mL (≈ 133 µM)
